Assay results reported in US20100015111A1, “Methods And Kits For The Treatment Inhibition, And Maintenance Of Gastrointestinal Disorders” (priority 2008, published 2010).

Tested on: dextran sulfate salt (DSS) induced chronic ulcerative colitis in male Swiss-Webster mice
Test: Olsalazine on dextran sulfate salt (DSS) induced chronic ulcerative colitis in mice
Assay type: in vivo
Conditions: for survival to necropsy day: 3% DSS days 0-14, 15% in disease controls; for mean body weight loss at study end: 3% DSS, disease control lost 3.90 g; for colon content score (mean, scale 0-3) / mean colon length / inhibition of decreased colon length: day 14; for colon content score (mean, scale 0-3): disease control mean 2.67; for mean colon length: normal 10.60, disease control 6.33; for inhibition of decreased colon length: vs disease control
Description: A study was conducted to determine the effect of Olsalazine on dextran sulfate salt (DSS) induced chronic ulcerative colitis in male Swiss-Webster mice. Groups of 20 male Swiss-Webster mice were allowed ad libitum access to Olsalazine qd beginning on day −3 and then continued daily (qd) or every two days (q2d) starting on day 0 and continuing through day 14. Dipentum®, Olsalazine Sodium is a sodium salt of salicylate, disodium 3,3′-azobis(6-hydroxybenzoate) and when exposed to colonic bacteria converts to mesalamine. In this animal model, male Swiss-Webster mice are exposed to DSS (3% days 0-14) to induce inflammation and gland loss with erosion in the colon.
Dextran sulfate, molecular weight 40-50,000 (sodium salt, Spectrum Chemicals, New Brunswick, N.J., Lot#RA1107) was stored at room temperature until added to appropriate volumes of tap water to prepare sufficient 3% DSS solutions. Prepared solutions were stored at 4° C. and added to water bottles daily. Every 3rd day, water in all bottles was discarded and replaced with fresh DSS preparations or tap water (normal controls). Dipentum® (Olsalazine Sodium) was received from the sponsor in hard gelatin capsule form. Capsules were received and each capsule contained 250 mg. On study day −3, 51 capsules were opened (˜12.75 grams) and the contents of each were consolidated into a labeled vial. Appropriate amounts of the beige-orange compound was then added to 250 ml water bottles so that each bottle would contain ˜0.83 mg/ml Olsalazine suspension in the water.
• Male Swiss-Webster mice weighing approximately 22-29 grams on day (−)3 were obtained from Harlan, Inc (Indianapolis, Ind.). Animals were identified by color-coded dots at the base of the tail delineating group and animal number. After randomization, all cages were labeled with protocol number, group and animal numbers with appropriate color-coding.
Animals (5/group/normal control, 20/group for diseased treated), housed 5/cage, were given 3.0% DSS in their water from test days 0-14. Olsalazine treatment was initiated on day −3 and continued daily through day 14, or on days −3, −2, −1, 0, 2, 4, 6, 8, 10, 12, and 14 for the q2d group. Animals were terminated on day 14. • Experimental groups were as follows:
Animals were weighed on study days −3 to 14. On day 14 mice were weighed, euthanized, and the entire colon was removed and the length determined. The colons were scored for gross changes using the following criteria:
0=normal, no blood observed
2=semi-solid to fluid stool
3=semi-solid with definite evidence of blood, bloody fluid or no content
Only animals that survived to study termination were included in the analysis of terminal colon lengths and scores.
For each surviving animal, the entire colon (proximal and distal) was trimmed into 8 equally spaced pieces for processing and embedding. Sections were stained with hemotoxylin and eosin (H&E). For each colon section, submucosal edema was quantified by measuring the distance (mm) from the muscularis mucosa to the internal border of the outer muscle layer in representative areas of edema. The extent of inflammation (foamy macrophages, lymphocytes and polymorphonuclear cell infiltrate) was assigned severity scores according to the following ranking:
The parameters reflecting epithelial cell loss/damage were scored individually using a percent area involved scoring method:
Parameters that were scored using the above percent involvement scale include: • 1) Colon glandular loss—includes crypt epithelial as well as remaining gland epithelial loss. • 2) Colon erosion—reflects loss of surface epithelium and generally is associated with mucosal hemorrhage (seen clinically and at necropsy).
Mucosal epithelial hyperplasia (basophilia, mitotic figures, multi-layered on basement membranes, absence of goblet cells) was scored 0-5 based on the following criteria […]

[1] = Olsalazine ad libitum, q2d, compared to disease controls
[2] = Olsalazine ad libitum, q2d, histopathology day 14, non significant
[3] = Olsalazine ad libitum, qd, histopathology day 14
[4] = Olsalazine ad libitum, qd, histopathology day 14, non significant
[5] = Olsalazine ad libitum, qd, histopathology day 14, significant

O=C([O-])c1cc(N=Nc2ccc(O)c(C(=O)[O-])c2)ccc1O.[Na+].[Na+] [Olsalazine, disodium 3,3′-azobis(6-hydroxybenzoate)]
survival to necropsy day (Olsalazine ad libitum in water (~0.83 mg/ml), every day (qd), day -3 to 14): 75%
survival to necropsy day (Olsalazine ad libitum, every other day (q2d): days -3,-2,-1,0,2,...14): 50%
mean body weight loss at study end (Olsalazine ad libitum, q2d): 3.10 g
inhibition of mean hyperplasia score [1]: 11%
inhibition of mucosal thickness [1]: 17%
colon content score (mean, scale 0-3) (Olsalazine ad libitum, q2d): 2.70
mean colon length (Olsalazine ad libitum, q2d): 7.1 cm
inhibition of decreased colon length (Olsalazine ad libitum, q2d): 18%
inhibition of colon gland loss (Olsalazine ad libitum, q2d, histopathology day 14): 32%
inhibition of colon edema [2]: 21%
inhibition of colon erosion [2]: 27%
inhibition of colon inflammation [2]: 27%
inhibition of sum colon histopathologic score [2]: 29%
mean body weight loss at study end (Olsalazine ad libitum, qd): 4.78 g
inhibition of mean hyperplasia score (Olsalazine ad libitum, qd, compared to disease control): 16%
colon content score (mean, scale 0-3) (Olsalazine ad libitum, qd): 2.33
mean colon length (Olsalazine ad libitum, qd): 7.33 cm
inhibition of decreased colon length (Olsalazine ad libitum, qd): 23%
inhibition of colon erosion [3]: 32%
inhibition of increase of mucosal thickness [3]: 32%
inhibition of colon edema [4]: 22%
inhibition of sum colon histopathologic score [4]: 35%
inhibition of colon gland loss [5]: 32%
inhibition of colon inflammation [5]: 33%
